# From patent US11820766B2, “Monoacylglycerol lipase modulators” (Janssen Pharmaceutica NV, priority 2018, dated 2023)
# Biological target: T1, human MGL from HeLa cells (Homo sapiens, UniProt Q99685)
# T1 construct: combining endogenously expressed MGL from HeLa cells with test compounds; endogenous in cells; host or cells: HeLa cells / cell homogenates
# T1 sequence (Q99685 1-303): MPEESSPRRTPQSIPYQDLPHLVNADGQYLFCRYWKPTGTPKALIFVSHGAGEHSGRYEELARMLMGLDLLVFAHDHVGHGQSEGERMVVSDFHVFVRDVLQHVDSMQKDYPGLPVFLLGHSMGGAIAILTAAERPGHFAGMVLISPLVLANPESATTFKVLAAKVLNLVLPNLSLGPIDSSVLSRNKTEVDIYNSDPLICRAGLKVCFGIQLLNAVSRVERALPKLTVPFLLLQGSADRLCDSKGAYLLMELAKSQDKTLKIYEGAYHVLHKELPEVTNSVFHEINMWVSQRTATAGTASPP
# Test: In vitro MGL activity assay: [glycerol-1,3-3H]-oleyl glycerol cleavage by MGL from HeLa cells
# Format: biochemical
# Conditions: 300 nM [Glycerol-1,3-3H]-oleyl glycerol, one hour incubation
# Source text: MGL is the predominant hydrolase in HeLa cells/cell homogenates.
row,Compound,IC50
1,"C[C@H]1c2nn(C)c(-c3cc(F)c(F)c(F)c3)c2CCN1C(=O)c1ccc(F)cc1-n1nccn1 [Example 196, (S)-(2,7-Dimethyl-3-(3,4,5-trifluorophenyl)-2,4,5,7-tetrahydro-6H-pyrazolo[3,4-c]pyridin-6-yl)(4-fluoro-2-(2H-1,2,3-triazol-2-yl)phenyl)methanone]",0.307 µM
2,"Cc1ccc(-n2nccn2)c(C(=O)N2CCc3c(nn(C)c3-c3cc(F)c(F)c(F)c3)[C@@H]2C)c1 [Example 197, (S)-(2,7-Dimethyl-3-(3,4,5-trifluorophenyl)-2,4,5,7-tetrahydro-6H-pyrazolo[3,4-c]pyridin-6-yl)(5-methyl-2-(2H-1,2,3-triazol-2-yl)phenyl)methanone]",0.06 µM
3,"C[C@H]1c2nn(C)c(-c3cc(F)c(F)c(F)c3)c2CCN1C(=O)c1cnn(C)c1C(F)(F)F [Example 198, (S)-(2,7-Dimethyl-3-(3,4,5-trifluorophenyl)-2,4,5,7-tetrahydro-6H-pyrazolo[3,4-c]pyridin-6-yl)(1-methyl-5-(trifluoromethyl)-1H-pyrazol-4-yl)methanone]",0.014 µM
4,"C[C@H]1c2nn(C)c(-c3cc(F)c(F)c(F)c3)c2CCN1C(=O)c1cnn(C(C)(C)C)c1C(F)(F)F [Example 199, (S)-(1-(tert-Butyl)-5-(trifluoromethyl)-1H-pyrazol-4-yl)(2,7-dimethyl-3-(3,4,5-trifluorophenyl)-2,4,5,7-tetrahydro-6H-pyrazolo[3,4-c]pyridin-6-yl)methanone]",0.172 µM
5,"C[C@H]1c2nn(C)c(-c3cc(F)c(F)c(F)c3)c2CCN1C(=O)c1cnn(C)c1C1CC1 [Example 201, (S)-(5-Cyclopropyl-1-methyl-1H-pyrazol-4-yl)(2,7-dimethyl-3-(3,4,5-trifluorophenyl)-2,4,5,7-tetrahydro-6H-pyrazolo[3,4-c]pyridin-6-yl)methanone]",0.00626 µM
6,"CCc1nc(C(=O)N2CCc3c(nn(C)c3-c3cc(F)c(F)c(F)c3)[C@@H]2C)nn1-c1ccccc1 [Example 202, (S)-(2,7-Dimethyl-3-(3,4,5-trifluorophenyl)-2,4,5,7-tetrahydro-6H-pyrazolo[3,4-c]pyridin-6-yl)(5-ethyl-1-phenyl-1H-1,2,4-triazol-3-yl)methanone]",0.00739 µM
7,"C[C@H]1c2nn(C)c(-c3cc(F)c(F)c(F)c3)c2CCN1C(=O)c1ccc2c(c1)N(C)C(=O)CO2 [Example 204, (S)-6-(2,7-Dimethyl-3-(3,4,5-trifluorophenyl)-4,5,6,7-tetrahydro-2H-pyrazolo[3,4-c]pyridine-6-carbonyl)-4-methyl-2H-benzo[b][1,4]oxazin-3(4H)-one]",0.0177 µM
8,"C[C@H]1c2nn(C)c(-c3cc(F)c(F)c(F)c3)c2CCN1C(=O)c1cccc2cc[nH]c12 [Example 205, (S)-(2,7-Dimethyl-3-(3,4,5-trifluorophenyl)-2,4,5,7-tetrahydro-6H-pyrazolo[3,4-c]pyridin-6-yl)(1H-indol-7-yl)methanone]",0.0333 µM
9,"C[C@H]1c2nn(C)c(-c3cc(F)c(F)c(F)c3)c2CCN1C(=O)c1cccc2ccn(C)c12 [Example 206, (S)-(2,7-Dimethyl-3-(3,4,5-trifluorophenyl)-2,4,5,7-tetrahydro-6H-pyrazolo[3,4-c]pyridin-6-yl)(1-methyl-1H-indol-7-yl)methanone]",0.00491 µM
10,"C[C@H]1c2nn(C)c(-c3cc(F)c(F)c(F)c3)c2CCN1C(=O)c1cccc2c1ccn2C [Example 207, (S)-(2,7-dimethyl-3-(3,4,5-trifluorophenyl)-2,4,5,7-tetrahydro-6H-pyrazolo[3,4-c]pyridin-6-yl)(1-methyl-1H-indol-4-yl)methanone]",0.00022 µM
11,"C[C@H]1c2nn(C)c(-c3cc(F)c(F)c(F)c3)c2CCN1C(=O)c1cccc2cn[nH]c12 [Example 208, (S)-(2,7-Dimethyl-3-(3,4,5-trifluorophenyl)-2,4,5,7-tetrahydro-6H-pyrazolo[3,4-c]pyridin-6-yl)(1H-indazol-7-yl)methanone]",0.0342 µM
12,"C[C@H]1c2nn(C)c(-c3cc(F)c(F)c(F)c3)c2CCN1C(=O)c1cnc2ccccn12 [Example 213, (S)-(2,7-Dimethyl-3-(3,4,5-trifluorophenyl)-2,4,5,7-tetrahydro-6H-pyrazolo[3,4-c]pyridin-6-yl)(imidazo[1,2-a]pyridin-3-yl)methanone]",0.0256 µM
13,"C[C@H]1c2nn(C)c(-c3cc(F)c(F)c(F)c3)c2CCN1C(=O)c1nccc2occc12 [Example 214, (S)-(2,7-Dimethyl-3-(3,4,5-trifluorophenyl)-2,4,5,7-tetrahydro-6H-pyrazolo[3,4-c]pyridin-6-yl)(furo[3,2-c]pyridin-4-yl)methanone]",0.0235 µM
14,"C[C@H]1c2nn(C)c(-c3cc(F)c(F)c(F)c3)c2CCN1C(=O)c1noc2ccccc12 [Example 215, (S)-Benzo[d]isoxazol-3-yl(2,7-dimethyl-3-(3,4,5-trifluorophenyl)-2,4,5,7-tetrahydro-6H-pyrazolo[3,4-c]pyridin-6-yl)methanone]",0.00317 µM
15,"C[C@H]1c2nn(C)c(-c3cc(F)c(F)c(F)c3)c2CCN1C(=O)c1nccc2[nH]ccc12 [Example 216, (S)-(2,7-Dimethyl-3-(3,4,5-trifluorophenyl)-2,4,5,7-tetrahydro-6H-pyrazolo[3,4-c]pyridin-6-yl)(1H-pyrrolo[3,2-c]pyridin-4-yl)methanone]",0.0262 µM

# Now from value to compound:
row,IC50,Compound
1,0.295 µM,"COc1cc(C(=O)N2CCc3c(nn(C)c3-c3cc(F)c(F)c(F)c3)[C@@H]2C)nn1C [Example 200, (S)-(2,7-Dimethyl-3-(3,4,5-trifluorophenyl)-2,4,5,7-tetrahydro-6H-pyrazolo[3,4-c]pyridin-6-yl)(5-methoxy-1-methyl-1H-pyrazol-3-yl)methanone]"
2,0.0675 µM,"COc1cncc(C(=O)N2CCc3c(nn(C)c3-c3cc(F)c(F)c(F)c3)[C@@H]2C)c1 [Example 203, (S)-(2,7-Dimethyl-3-(3,4,5-trifluorophenyl)-2,4,5,7-tetrahydro-6H-pyrazolo[3,4-c]pyridin-6-yl)(5-methoxypyridin-3-yl)methanone]"
3,0.0111 µM,"C[C@H]1c2nn(C)c(-c3cc(F)c(F)c(F)c3)c2CCN1C(=O)c1cccc2cnn(C)c12 [Example 209, (S)-(2,7-Dimethyl-3-(3,4,5-trifluorophenyl)-2,4,5,7-tetrahydro-6H-pyrazolo[3,4-c]pyridin-6-yl)(1-methyl-1H-indazol-7-yl)methanone]"
4,0.0006 µM,"Cc1cc(C(=O)N2CCc3c(nn(C)c3-c3cc(F)c(F)c(F)c3)[C@@H]2C)cc2cn[nH]c12 [Example 210, (S)-(2,7-Dimethyl-3-(3,4,5-trifluorophenyl)-2,4,5,7-tetrahydro-6H-pyrazolo[3,4-c]pyridin-6-yl)(7-methyl-1H-indazol-5-yl)methanone]"
5,0.0722 µM,"C[C@H]1c2nn(C)c(-c3cc(F)c(F)c(F)c3)c2CCN1C(=O)c1ccc2c(cnn2C)c1 [Example 211, (S)-(2,7-Dimethyl-3-(3,4,5-trifluorophenyl)-2,4,5,7-tetrahydro-6H-pyrazolo[3,4-c]pyridin-6-yl)(1-methyl-1H-indazol-5-yl)methanone]"
6,0.00556 µM,"C[C@H]1c2nn(C)c(-c3cc(F)c(F)c(F)c3)c2CCN1C(=O)c1cccn2cncc12 [Example 212, (S)-(2,7-Dimethyl-3-(3,4,5-trifluorophenyl)-2,4,5,7-tetrahydro-6H-pyrazolo[3,4-c]pyridin-6-yl)(imidazo[1,5-a]pyridin-8-yl)methanone]"
